Test results taken from the supplement of paper PMC10307832.

Columns and labels:
Assay in all cases: relative viability (nuclei count vs DMSO), 5 days (fraction); higher = more cells survive
[1] = compound: Cc1ccc(F)c(NC(=O)Nc2ccc(-c3cccc4[nH]nc(N)c34)cc2)c1 [Linifanib] + CS(=O)(=O)CCNCc1ccc(-c2ccc3ncnc(Nc4ccc(OCc5cccc(F)c5)c(Cl)c4)c3c2)o1 [Lapatinib] (partner 2 µM)
Summary of the method: (§1)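 Lung cancer cell lines in 1536-well plates were dosed by pin tool the day after seeding, either with one drug alone or with a fixed anchor-drug dose plus five library-drug doses (not always all listed) in √10 steps. After 5 days, cells were fixed and their nuclei stained in one step (final 0.05% Triton X-100, 1% formaldehyde, 1 ug/ml Hoechst), then counted on 4× images. Relative viability is the nuclei count in treated wells divided by that in vehicle wells. Values are medians of duplicate plates.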

[2] = compound: Cc1ccc(F)c(NC(=O)Nc2ccc(-c3cccc4[nH]nc(N)c34)cc2)c1 [Linifanib] + COc1cc2c(Oc3ccc(NC(=O)C4(C(=O)Nc5ccc(F)cc5)CC4)cc3F)ccnc2cc1OCCCN1CCOCC1 [Foretinib] (partner 0.25 µM)
Summary of the method: as §1

[3] = compound: Cc1ccc(F)c(NC(=O)Nc2ccc(-c3cccc4[nH]nc(N)c34)cc2)c1 [Linifanib] + CC(C)C[C@H](NC(=O)[C@H](Cc1ccccc1)NC(=O)c1cnccn1)B(O)O [Bortezomib] (partner 0.002 µM)
Summary of the method: as §1

[4] = compound: Cc1ccc(F)c(NC(=O)Nc2ccc(-c3cccc4[nH]nc(N)c34)cc2)c1 [Linifanib] + Cc1nc(NC(=O)N2CCC[C@H]2C(N)=O)sc1-c1ccnc(C(C)(C)C(F)(F)F)c1 [Alpelisib] (partner 2 µM)
Summary of the method: as §1

[5] = compound: Cc1ccc(F)c(NC(=O)Nc2ccc(-c3cccc4[nH]nc(N)c34)cc2)c1 [Linifanib] + CC(=O)Nc1cccc(-n2c(=O)n(C3CC3)c(=O)c3c(Nc4ccc(I)cc4F)n(C)c(=O)c(C)c32)c1 [Trametinib] (partner 0.02 µM)
Summary of the method: as §1

[6] = compound: Cc1ccc(F)c(NC(=O)Nc2ccc(-c3cccc4[nH]nc(N)c34)cc2)c1 [Linifanib] + COc1cccc2cc(-c3nc([C@H]4CC[C@H](C(=O)O)CC4)n4ncnc(N)c34)[nH]c12 [OSI-027] (partner 0.5 µM)
Summary of the method: as §1

Cell Line | relative viability ([1]; first compound 0.03162 µM) | relative viability ([1]; first compound 0.1 µM) | relative viability ([1]; first compound 0.3162 µM) | relative viability ([2]; first compound 0.03162 µM) | relative viability ([2]; first compound 0.1 µM) | relative viability ([2]; first compound 0.3162 µM) | relative viability ([3]; first compound 0.03162 µM) | relative viability ([3]; first compound 0.1 µM) | relative viability ([3]; first compound 0.3162 µM) | relative viability ([4]; first compound 0.03162 µM) | relative viability ([4]; first compound 0.1 µM) | relative viability ([4]; first compound 0.3162 µM) | relative viability ([5]; first compound 0.03162 µM) | relative viability ([5]; first compound 0.1 µM) | relative viability ([5]; first compound 0.3162 µM) | relative viability ([6]; first compound 0.03162 µM) | relative viability ([6]; first compound 0.1 µM) | relative viability ([6]; first compound 0.3162 µM)
NCI-H2085 | 0.809 | 0.83 | 0.734 | 0.979 | 1.12 | 0.806 | 1.07 | 1.06 | 0.971 | 0.923 | 1.13 | 0.916 | 0.67 | 0.503 | 0.59 | 0.842 | 0.733 | 0.758
NCI-H460 | 1.1 | 1.11 | 0.697 | 0.963 | 1.01 | 0.95 | 1.03 | 1.18 | 0.925 | 0.432 | 0.602 | 0.469 | 0.178 | 0.168 | 0.146 | 0.682 | 0.768 | 0.611
HCC-78 | 1.23 | 0.976 | 0.674 | 0.543 | 0.501 | 0.542 | 0.455 | 0.429 | 0.472 | 0.339 | 0.357 | 0.363 | 0.657 | 0.692 | 0.805 | 0.391 | 0.396 | 0.344
NCI-H650 | 1.16 | 0.941 | 0.766 | 1 | 1.03 | 0.994 | 0.816 | 0.814 | 0.864 | 1.09 | 1.04 | 1.14 | 0.935 | 0.967 | 0.952 | 0.493 | 0.584 | 0.514
NCI-H322M | 0.582 | 0.539 | 0.537 | 0.939 | 1.06 | 1.02 | 1.24 | 1.21 | 1.27 | 0.81 | 0.823 | 0.754 | 0.549 | 0.345 | 0.506 | 0.629 | 0.584 | 0.503
A-427 | 1.06 | 1.01 | 0.955 | 1.02 | 1.34 | 1.02 | 1.04 | 1.05 | 0.949 | 1.13 | 1.16 | 1.09 | 0.755 | 0.806 | 0.836 | 0.526 | 0.512 | 0.423
BEN | 0.6 | 0.767 | 0.713 | 0.718 | 0.774 | 0.608 | 0.723 | 0.975 | 0.778 | 0.963 | 1.11 | 0.992 | 0.929 | 0.946 | 1.1 | 0.28 | 0.295 | 0.311
NCI-H2087 | 1.15 | 1.2 | 0.672 | 1.08 | 1.26 | 0.993 | 1.06 | 0.608 | 0.849 | 1.28 | 1.17 | 1.03 | 0.188 | 0.235 | 0.195 | 0.643 | 0.585 | 0.563
PC-14 | 0.32 | 0.436 | 0.305 | 0.976 | 0.951 | 0.914 | 0.924 | 0.989 | 0.746 | 0.907 | 0.958 | 0.88 | 0.689 | 0.715 | 0.666 | 0.844 | 1.08 | 0.762
COR-L23 | 1.09 | 0.905 | 0.921 | 0.952 | 0.951 | 0.959 | 1.12 | 1.17 | 0.831 | 0.81 | 0.957 | 0.732 | 0.666 | 0.689 | 0.578 | 0.875 | 0.786 | 0.722
SK-LU-1 | 0.84 | 1.12 | 0.738 | 0.805 | 0.816 | 0.811 | 1.11 | 1.2 | 1.19 | 0.926 | 0.918 | 1.05 | 0.457 | 0.745 | 0.48 | 0.387 | 0.472 | 0.337
NCI-H2023 | 0.801 | 1.06 | 0.733 | 0.807 | 0.806 | 0.836 | 1.03 | 1.28 | 0.975 | 0.585 | 0.598 | 0.564 | 0.538 | 0.675 | 0.554 | 0.426 | 0.539 | 0.37
LC-2-ad | 1.06 | 1.04 | 0.883 | 0.905 | 0.911 | 0.904 | 0.976 | 1.23 | 0.98 | 0.749 | 0.912 | 0.752 | 0.87 | 0.924 | 0.824 | 0.722 | 0.951 | 0.855
LU99A | 1.07 | 1.06 | 1.05 | 0.856 | 0.973 | 0.826 | 1.13 | 1.16 | 1.21 | 0.574 | 0.618 | 0.539 | 0.558 | 0.582 | 0.587 | 0.323 | 0.326 | 0.338
HARA | 0.815 | 0.905 | 0.73 | 1.09 | 1.06 | 0.835 | 1.14 | 1.11 | 1.06 | 0.864 | 0.983 | 0.756 | 0.813 | 0.809 | 0.591 | 0.569 | 0.571 | 0.498
NCI-H838 | 1.01 | 1.11 | 0.933 | 1.05 | 1.08 | 1.02 | 1.24 | 1.08 | 0.968 | 0.903 | 1.07 | 0.932 | 0.528 | 0.554 | 0.521 | 0.393 | 0.429 | 0.397
NCI-H647 | 1.22 | 1.29 | 1.01 | 1.03 | 1.23 | 1.12 | 1.25 | 1.14 | 1.07 | 1.07 | 1.21 | 0.963 | 0.567 | 0.526 | 0.588 | 0.703 | 0.795 | 0.587
